This is an account of results in patent publication US12246026B2, “Ganaxolone for use in treatment of status epilepticus” (Marinus Pharmaceuticals, Inc., priority 2019, dated 2025).

In series [1] the test system is subject with SRSE. The series can be described thus: Emergency IND No. 131,642, IV GNX in SRSE, EEG response. The series is classed as in vivo, human. Here is the method: Under eIND No. 131,642, IV GNX was administered to a subject with SRSE who was unable to maintain status cessation with ketamine and barbiturates. The Day 1 dosage regimen delivered 900 mg of GNX, equating to a 900 to 1200 ng/mL plasma concentration of GNX. As the subject could not be maintained in burst suppression, the clinical team was able to utilize EEG changes to gauge the response (FIG. 11). […] However, due to the dosing plan agreed upon with the FDA with a daily Captisol limit of 63 g/day, the initial 120 mg/hr dose on Day 1 could not be maintained for longer than 1 hour and then had to be decreased to the 30 mg/hr dose. The first seizures re-occurred within 15 to 20 minutes of the change in GNX dose from 120 mg/hr to 30 mg/hr.

The target in series [2] is T1, progesterone receptor (Homo sapiens, UniProt P06401).
T1 sequence (P06401 1-933): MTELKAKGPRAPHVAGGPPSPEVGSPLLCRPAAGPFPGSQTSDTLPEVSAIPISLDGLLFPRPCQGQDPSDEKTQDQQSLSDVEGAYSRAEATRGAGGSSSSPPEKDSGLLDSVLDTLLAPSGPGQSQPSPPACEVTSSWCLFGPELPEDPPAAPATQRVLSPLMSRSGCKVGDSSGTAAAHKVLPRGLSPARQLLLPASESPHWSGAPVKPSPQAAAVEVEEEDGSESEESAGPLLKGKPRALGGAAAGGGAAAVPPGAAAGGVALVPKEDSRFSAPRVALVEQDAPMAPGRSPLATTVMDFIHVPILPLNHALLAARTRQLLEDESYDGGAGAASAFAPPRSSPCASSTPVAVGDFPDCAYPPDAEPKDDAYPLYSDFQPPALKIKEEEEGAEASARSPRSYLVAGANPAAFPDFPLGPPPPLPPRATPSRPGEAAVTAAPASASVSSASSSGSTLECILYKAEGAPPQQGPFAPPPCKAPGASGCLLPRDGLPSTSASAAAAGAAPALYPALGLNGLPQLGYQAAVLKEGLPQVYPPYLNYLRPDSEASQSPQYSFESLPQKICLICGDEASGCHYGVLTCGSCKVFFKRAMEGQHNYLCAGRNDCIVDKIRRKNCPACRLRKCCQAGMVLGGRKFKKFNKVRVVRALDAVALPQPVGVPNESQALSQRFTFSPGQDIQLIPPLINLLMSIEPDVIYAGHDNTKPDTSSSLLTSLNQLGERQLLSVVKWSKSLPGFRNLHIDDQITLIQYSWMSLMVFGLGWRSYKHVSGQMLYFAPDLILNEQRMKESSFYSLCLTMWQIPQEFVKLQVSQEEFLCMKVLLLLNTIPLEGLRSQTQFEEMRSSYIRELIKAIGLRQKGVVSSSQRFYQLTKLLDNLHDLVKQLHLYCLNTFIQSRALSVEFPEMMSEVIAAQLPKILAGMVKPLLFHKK
The series can be described thus: Progesterone receptor activation. The following applies: directly or indirectly via metabolic conversion. The source says: Ganaxolone (3α-hydroxy-3β-methyl-5α-pregnan-20-one) is a 3β-methylated synthetic analogue of the endogenous neurosteroid allopregnanolone with similar biological activity (Carter et al., (1997), The Journal of Pharmacology and Experimental Therapeutics, 280:1284-1295), but it is designed to not activate nuclear (classical) progesterone receptors. Also, in contrast to allopregnanolone, ganaxolone is orally bioavailable.

Series [3] relates to healthy subjects. The series can be described thus: Phase 1 IV ganaxolone pharmacodynamics (BIS, EEG) in healthy subjects. It is filed as in vivo, human. As to the method: A Phase I clinical trial evaluating IV ganaxolone formulation was performed. The clinical trial was designed to investigate the safety, pharmacokinetics, and pharmacodynamics of an intravenous bolus of ganaxolone and continuous intravenous infusion of ganaxolone in 30 healthy subjects. Subjects were administered either an intravenous bolus of ganaxolone in an amount of 10-20 mg for a period of 2 minutes to 1 hour, or an intravenous bolus of ganaxolone in an amount of 6 mg for a period of 5 minutes with a continuous intravenous infusion in an amount of 20 mg/hr for a period of 4 hours.
There was little or no delay between the appearance of drug in plasma and a change in the BIS score.

Series [4] is described as follows: Human PK in subjects taking strong CYP inducers. It is filed as in vivo. The following applies: subjects taking strong CYP inducers (carbamazepine and phenytoin).

For `CC(=O)[C@H]1CC[C@H]2[C@@H]3CC[C@H]4C[C@](C)(O)CC[C@]4(C)[C@H]3CC[C@]12C` [Ganaxolone, 3α-hydroxy-3β-methyl-5α-pregnan-20-one], the “dose at which the effect of GNX started” value in series [1] (eIND 131,642) turned out to be 60 mg/h. Moreover, in series [1] (eIND 131,642, at 120 mg/hr), the EEG seizure response result is reported as “complete seizure cessation”. Also, the “time to first seizure re-occurrence after dose change” value in series [1] (eIND 131,642, change from 120 mg/hr to 30 mg/hr) was 15 to 20 min. For the same molecule, in series [2], the “activation of the progesterone receptor” value is “does not activate the progesterone receptor directly or indirectly”. Besides, the “EEG and BIS changes” value in series [3] (Phase 1, FIG. 1) is on record as “consistent with sedative/anesthetic effects”. Further, the “bispectral index (BIS) score versus plasma concentration” value in series [3] (healthy subjects, IV) was “higher plasma concentration was associated with lower BIS scores”. Moreover, the “lowering in overall ganaxolone levels and exposure” value in series [4] is approximately 45%.
